Tests used:
[1] = test system: rats; assay: Sedative studies in rats (0-4 sedation score); format: in vivo, rat
Description: The relative potency of fospropofol given via different administration routes was investigated in rats, using sedation as an end point. Intravenous fospropofol doses of 5-40 mg/kg were chosen based on previous studies (Schywalsky, et al., 2003). Based on expected lower oral bioavailability, doses of 100-400 mg/kg were chosen for the PO and ID studies. Following administration of fospropofol, two experimental observers blinded to the treatment, graded the behavior of the rats (n=2-3 per experimental group) every 5 min for a total of 120 min after administration. […] Scores were averaged across treatment groups per time point.

[2] = test system: patients; details: anesthetic induction doses; cited from earlier work
[3] = IV lipid emulsion, humans; cited from earlier work

| SMILES | dose inducing full sedation (average score 3.5 or higher) ([1]; ID) | onset of sedation after administration ([1]; ID) | dose inducing full sedation (average score 3.5 or higher) ([1]; IV) | onset of sedative effects ([1]; IV 10-40 mg/kg) | sedative effects abated after infusion ([1]; IV 10-40 mg/kg) | dose inducing full sedation (average score 3.5 or higher) ([1]; PO) | onset of sedated behavior after dosing ([1]; PO) | degree of sedation ([1]; PO 100-200 mg/kg) | duration of sedation ([1]; PO 100-200 mg/kg) | duration of loss of consciousness ([1]; PO 300 and 400 mg/kg) | patients with respiratory consequences (reduction in tidal volume, apnea) [2] | extraction by the liver [3] |
| --- | --- | --- | --- | --- | --- | --- | --- | --- | --- | --- | --- | --- |
| CC(C)c1cccc(C(C)C)c1OCOP(=O)(O)O [fospropofol] | 50 mg/kg | ≤ 5 min | 40 mg/kg | ≤ 1 min | ≤ 30 min | 300 to 400 mg/kg | 5 to 10 min | mild to moderate sedation | 1 to 2 h | ≤ 1 h |  |  |
| CC(C)c1cccc(C(C)C)c1O [propofol, 2,6-diisopropylphenol] |  |  |  |  |  |  |  |  |  |  | up to 83% | 80% |
